Assay results: US5604206A, “Complexes containing S(+) phenyl alkane acids and amino sugars” (priority 1990, dated 1997)

Legend:
clinical = conditions: human, in vivo, po
[1] = Pharmacokinetics after a single oral dose in test persons (Table 1)
[2] = single oral dose, tablet, 150 mg ibuprofen active substance, 4 test persons, Mean ± SD

SMILES	tmax (clinical)	tlag [1, 2]	tmax (rapid onset effect) ([1]; 150 mg active substance)	AUC [1, 2]	Cmax [1, 2]	tmax [1, 2]
CC(C)Cc1ccc([C@H](C)C(=O)O)cc1 [S(+)-ibuprofen free acid, S(+)-ibuprofen, reference compound]	2.1 ± 0.2 h	0.50 ± 0.1 h	–	–	–	–
CC(C)Cc1ccc([C@H](C)C(=O)O)cc1.CNC[C@H](O)[C@@H](O)[C@H](O)[C@H](O)CO [Sugar complex, S(+)-ibuprofen-N-methyl-2-deoxy-glucitol]	–	0.1 ± 0.02 h	0.25 to 0.333 h	55000 ± 10200 ng·h/mL	24500 ± 6700 ng/mL	0.25 ± 0.11 h
